# Test results taken from ChEMBL document CHEMBL3639081, “Azabicyclo compound and salt thereof” (2014).
# Biological target: Heat shock protein HSP 90-alpha (Homo sapiens, UniProt P07900)
# Assay: AlphaScreen Competitive Assay: The HSP90-binding activity was measured by an AlphaScreen competitive assay system. The purified HSP90 solution was diluted with a binding buffer (50 mM Tris-HCl (pH 7.5), 150 mM NaCl, 0.1% Triton-X100, 1 mM DTT, 0.1% BSA) and added to a 384-well plate (No. 3673, Corning Incorporated) containing test substances. After reaction at room temperature for 2 hr, biotin-labeled geldanamycin was added to each reaction solution in an amount of 40 nM, followed by reaction for further 1 hr. Detection mix (20 mM HEPES-KOH (pH 7.5), 0.5% BSA, 0.04 mg/mL Nickel Chelate Acceptor beads, 0.04 mg/mL Streptavidin-coated Donor beads) (No. 6760619C, Perkin Elmer, Inc.) was added to each well in the same amount as that of the reaction solution. After reaction in a dark place at room temperature for 1 hr, the fluorescence intensity in each well was measured with a multilabel plate reader, EnVision (Perkin Elmer, Inc.).
compound,measurement,value
COc1cc(C(N)=O)ccc1-n1nc(C(C)C)c2c(-n3cnc(-c4cnn(C)c4)c3)ccnc21,IC50,90 nM
